What was measured:
[1] = system: subjects with subjective tinnitus of at least moderate severity; assay: Double-blind placebo-controlled pilot trial of neramexane in tinnitus: THF-12 (TBF-12) questionnaire; format: in vivo, human; settings: for TBF-12 functional-communicational score, Actual Mean ± SD / TBF-12 functional-communicational score, Neramexane - Placebo LSMean Diff. ± SE / TBF-12 functional-communicational score, Change Mean ± SD / TBF-12 functional-communicational score, Change LSMean: ITT-LOCF; for TBF-12 functional-communicational score, Change Mean ± SD / TBF-12 functional-communicational score, Change LSMean: baseline to Week 16; for TBF-12 functional-communicational score, Change LSMean: ANCOVA
Experimental: The objective of this pilot project was to conduct a clinical trial to assess the efficacy of neramexane as a treatment for tinnitus. The primary objective of this study was to compare the efficacy, tolerability and safety of neramexane mesylate at three different dosages (25, 50 or 75 mg/d) with placebo in subjects with subjective tinnitus of at least moderate severity.
(§1) In a double-blind, multicenter, randomized, placebo-controlled, parallel-group study, the efficacy of neramexane in subjects suffering from tinnitus of at least moderate severity was assessed. Approximately 100 patients, who fulfilled particular inclusion criteria and met none of particular exclusion criteria, were randomized to each of four double-blind treatment groups (neramexane mesylate 25, 50, 75 mg/d or placebo), resulting in approximately 400 patients in total.
(§2) The double-blind, 16-week treatment period consisted of a 4-week uptitration period and a 12-week fixed-dose treatment period at maintenance b.i.d. dosing. In case of poor tolerability, however, the investigator could consider a dose reduction by 25 mg/d (or placebo, respectively). After the treatment phase, there was a 4-week follow-up period with no active treatment and concomitant therapy restrictions. In total, this study involved seven study visits: screening, baseline, and at the end of weeks 4, 8, 12, 16, and 20.
Visit 1 (screening): After signing the consent form, the subject underwent a physical examination and clinical laboratory testing. Patient eligibility for the study was evaluated via a check of inclusion/exclusion criteria. An initial Tinnitus Interview was conducted. The subject also completed a Tinnitus-Beeinträchtigungs-Fragebogen (THF-12) (i.e., a 12-item German modified and validated version (Greimel K V et al., Tinnitus-Beeinträchtigungs-Fragebogen (THF-12). Manual. Frankfurt am Main: Swets & Zeitlinger B. V.; 2000) of the 25-item Tinnitus Handicap Inventory or THI (Newman C W, et al. Development of the Tinnitus Handicap Inven-tory. Arch Otolaryngol Head Neck Surg 1996; 122(2): 143-148; Newman C W, et al. Psychometric adequacy of the Tinnitus Handicap Inventory (THI) for evaluating treatment outcome. J Am Acad Audiol 1998; 9(2): 153-160.)), a Hospital Anxiety and Depression Scale—Depression Subscale (HADS-D) Questionnaire and a Hyperacusis (Geräuschüberempfindlichkeit-Fragenbogen (GÜF)) Questionnaire (if applicable).
(§3) Study medication was dispensed at Visit 2 (baseline, day 0). Each patient received one blister box containing 5 blister cards (including one reserve blister) of double-blind study medication (i.e., […]). Subjects were instructed to take 2 tablets twice daily (4 tablets/d), beginning the day after dispensing of the study medication, until they returned for their next study visit (Visit 3). For those subjects assigned to receive active medication, some placebo tablets were incorporated into the dosing regimen to ensure blinding during the uptitration period. The target fixed-maintenance dose of 25, 50, or 75 mg neramexane mesylate/d was administered starting with the fifth week of double-blind treatment and was continued throughout the study. At each of the subsequent visits (Visits 3, 4, and 5, corresponding to end of week 4, 8 and 12) patients received another blister box containing 5 blister cards for the 4 week intervals, with double-blind medication for the intervening treatment period until the next study visit.
Primary Outcome • The change in THF-12 total score from baseline (Visit 2) to the endpoint visit (Visit 6, i.e. Week 16) was the primary efficacy endpoint in this study. […]

[2] = system: subjects with subjective tinnitus of at least moderate severity; assay: Double-blind placebo-controlled pilot trial of neramexane in tinnitus: structured tinnitus interview, question 12/5 (concentration); format: in vivo, human; settings: for Concentration: Affected (%) / Concentration: Affected n / Concentration: No effect (%) / Concentration: No effect n / Concentration: Prevented (%) / Concentration: Prevented n: ITT-LOCF
Experimental: as §1, §2, §3
Secondary Outcomes • THF-12 total score (values and absolute change from baseline) at all post-baseline visits except the endpoint visit. • Change in the THF-12 total score from Week 16 to Week 20 (values and absolute changes). • THF-12 factorial scores (values and absolute change from baseline, including the change from Week 16 to Week 20) at all post-baseline visits. • Hyperacusis questionnaire GÜF (“Geräuschüberempfindlichkeits-Fragebogen”), values and absolute change from baseline, including the change from Week 16 to Week 20, total and factorial scores at all post-baseline visits if hyperacusis was present. • Clinical global impression of change: item 27 of the tinnitus follow-up interview was summarized after dichotomization of the responses in any improvement (values 1, 2, 3) versus no improvement (values 4, 5, 6, 7) and in marked improvement (values 1, 2) versus no marked improvement (values 3, 4, 5, 6, 7). • Total score of HADS-D as well as the depression and anxiety subscale scores (values and absolute change from baseline, also the change from week 16 to week 20) at all post-baseline visits. • Values of tinnitus interview (initial and follow-up) at all post-baseline visits; absolute change from baseline and change from Week 16 to Week 20 for items 8, 9, 10, 19, 20, 21, 24, 25 and 26 of the follow-up interview.
All efficacy analyses were performed on the ITT population using the last-observation-carried-forward (LOCF) approach. For sensitivity purposes an analysis of the per-protocol set and of observed cases was performed additionally. All statistical tests used for testing the primary efficacy (confirmatory testing) and secondary efficacy criteria (exploratory), and all other statistical tests used for exploratory analyses were two-sided hypothesis tests performed at the 5% significance level. For all variables standard descriptive statistics were calculated.

[3] = target: α9/α10 nicotinic receptor (Rattus norvegicus, UniProt P43144+Q9JLB5); settings: Plazas, et al., Eur J. Pharmacol., 2007; cited from earlier work
α9/α10 nicotinic receptor, sequence (P43144 26-479): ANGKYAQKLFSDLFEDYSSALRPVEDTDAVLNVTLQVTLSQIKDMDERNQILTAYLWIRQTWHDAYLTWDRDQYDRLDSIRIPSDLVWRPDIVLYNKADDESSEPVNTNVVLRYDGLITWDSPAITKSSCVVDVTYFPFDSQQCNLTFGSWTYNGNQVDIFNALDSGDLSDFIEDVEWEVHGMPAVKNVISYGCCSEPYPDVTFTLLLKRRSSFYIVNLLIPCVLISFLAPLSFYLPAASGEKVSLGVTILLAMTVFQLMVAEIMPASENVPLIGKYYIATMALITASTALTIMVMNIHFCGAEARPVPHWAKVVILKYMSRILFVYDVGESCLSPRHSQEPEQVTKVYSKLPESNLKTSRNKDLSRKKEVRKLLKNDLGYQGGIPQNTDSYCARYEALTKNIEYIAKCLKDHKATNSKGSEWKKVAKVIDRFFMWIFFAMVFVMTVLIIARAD
α9/α10 nicotinic receptor, sequence (Q9JLB5 25-447): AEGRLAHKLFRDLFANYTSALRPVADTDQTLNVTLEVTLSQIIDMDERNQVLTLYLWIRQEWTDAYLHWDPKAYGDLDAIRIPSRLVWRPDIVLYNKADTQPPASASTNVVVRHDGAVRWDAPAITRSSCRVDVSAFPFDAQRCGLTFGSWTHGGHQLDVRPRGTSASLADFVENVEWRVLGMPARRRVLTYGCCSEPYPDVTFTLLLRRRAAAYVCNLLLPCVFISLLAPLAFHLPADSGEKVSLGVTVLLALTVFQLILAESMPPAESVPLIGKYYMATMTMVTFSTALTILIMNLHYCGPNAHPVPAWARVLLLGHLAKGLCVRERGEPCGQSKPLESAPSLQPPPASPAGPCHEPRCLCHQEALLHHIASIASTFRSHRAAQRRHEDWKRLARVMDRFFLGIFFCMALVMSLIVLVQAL

[4] = Baseline, 25 mg/d group, N = 106
[5] = Baseline, 50 mg/d group, N = 106
[6] = Baseline, 75 mg/d group, N = 99
[7] = Week 16 or end of treatment, 25 mg/d, N = 101
[8] = Week 16 or end of treatment, 50 mg/d, N = 103
[9] = Week 16 or end of treatment, 75 mg/d, N = 93
[10] = final daily doses of 50 or 75 mg, 16 weeks, distinct from placebo or low-dose (25 mg)

## CC1(C)CC(C)(C)CC(C)(N)C1 [Neramexane, 1-amino-1,3,3,5,5-pentamethylcyclohexane]
[1]; Baseline, 25 mg/d group, n=106
  TBF-12 functional-communicational score, Actual Mean ± SD: 5.0 ± 2.1
[1]; Baseline, 50 mg/d group, n=106
  TBF-12 functional-communicational score, Actual Mean ± SD: 5.2 ± 1.9
[1]; Baseline, 75 mg/d group, n=99
  TBF-12 functional-communicational score, Actual Mean ± SD: 5.1 ± 2.2
[1]; Week 16, 25 mg/d vs placebo
  TBF-12 functional-communicational score, Neramexane - Placebo LSMean Diff. ± SE: 0.0 ± 0.2
[1]; Week 16, 25 mg/d, n=106
  TBF-12 functional-communicational score, Actual Mean ± SD: 4.3 ± 2.5
[1]; Week 16, 50 mg/d vs placebo
  TBF-12 functional-communicational score, Neramexane - Placebo LSMean Diff. ± SE: −0.5 ± 0.2
[1]; Week 16, 50 mg/d, n=106
  TBF-12 functional-communicational score, Actual Mean ± SD: 3.9 ± 2.2
[1]; Week 16, 75 mg/d vs placebo
  TBF-12 functional-communicational score, Neramexane - Placebo LSMean Diff. ± SE: −0.4 ± 0.2
[1]; Week 16, 75 mg/d, n=99
  TBF-12 functional-communicational score, Actual Mean ± SD: 4.0 ± 2.5
[1]; 25 mg/d
  TBF-12 functional-communicational score, Change Mean ± SD: −0.7 ± 1.5
  TBF-12 functional-communicational score, Change LSMean: −0.7
[1]; 50 mg/d
  TBF-12 functional-communicational score, Change Mean ± SD: −1.2 ± 2.0
  TBF-12 functional-communicational score, Change LSMean: −1.2
[1]; 75 mg/d
  TBF-12 functional-communicational score, Change Mean ± SD: −1.1 ± 1.8
  TBF-12 functional-communicational score, Change LSMean: −1.0
[1]; patients with tinnitus
  effect on cognitive function in patients with tinnitus (conclusion of Example 1): capability to improve cognitive function
[2]; [4]
  Concentration: Affected (%): (82.1) %
  Concentration: Affected n: 87
  Concentration: No effect (%): (12.3) %
  Concentration: No effect n: 13
  Concentration: Prevented (%): (5.7) %
  Concentration: Prevented n: 6
[2]; [5]
  Concentration: Affected (%): (84.0) %
  Concentration: Affected n: 89
  Concentration: No effect (%): (9.4) %
  Concentration: No effect n: 10
  Concentration: Prevented (%): (6.6) %
  Concentration: Prevented n: 7
[2]; [6]
  Concentration: Affected (%): (73.7) %
  Concentration: Affected n: 73
  Concentration: No effect (%): (19.2) %
  Concentration: No effect n: 19
  Concentration: Prevented (%): (7.1) %
  Concentration: Prevented n: 7
[2]; [7]
  Concentration: Affected (%): (81.2) %
  Concentration: Affected n: 82
  Concentration: No effect (%): (17.8) %
  Concentration: No effect n: 18
  Concentration: Prevented (%): (1.0) %
  Concentration: Prevented n: 1
[2]; [8]
  Concentration: Affected (%): (73.8) %
  Concentration: Affected n: 76
  Concentration: No effect (%): (24.3) %
  Concentration: No effect n: 25
  Concentration: Prevented (%): (1.9) %
  Concentration: Prevented n: 2
[2]; [9]
  Concentration: Affected (%): (73.1) %
  Concentration: Affected n: 68
  Concentration: No effect (%): (23.7) %
  Concentration: No effect n: 22
  Concentration: Prevented (%): (3.2) %
  Concentration: Prevented n: 3
[3]
  activity at α9/α10 nicotinic receptor: α9/α10 nicotinic receptor antagonist

## CC1(C)CC(C)(C)CC(C)(N)C1.CS(=O)(=O)O [neramexane mesylate]
[1]; final daily doses of 50 or 75 mg, 16-week double-blind treatment, distinct from placebo or low-dose (25 mg)
  improvement of tinnitus as measured by the THF-12: clear improvement of their tinnitus
[1]; [10]
  improvement of cognition, item one (concentration) and item two (focused attention) of the functional-communicational subscore of the THF-12: clear improvement of their cognition
[2]; [10]
  improvement of concentration, question 12/5 of the structured tinnitus interview: clear improvement of their concentration

From patent US20110178179A1, “1-AMINO-ALKYLCYCLOHEXANE DERIVATIVES FOR THE TREATMENT OF COGNITIVE IMPAIRMENT IN TINNITUS” (MERZ PHARMA GmbH & CO. KGaA, priority 2008, published 2011)
